Among the data in ChEMBL document CHEMBL1127940, “Analogs of the marine natural product scalaradial lacking the ,-unsaturated aldehyde: effects on human synovial fluid phospholipase A2 and macrophage lipid mediator production” (Bioorg Med Chem Lett, 1994) are IC50 and inhibition values, retold here.

The target in test [1] is T1, Phospholipase A2, membrane associated (Homo sapiens, UniProt P14555).
T1 sequence (P14555 whole entry): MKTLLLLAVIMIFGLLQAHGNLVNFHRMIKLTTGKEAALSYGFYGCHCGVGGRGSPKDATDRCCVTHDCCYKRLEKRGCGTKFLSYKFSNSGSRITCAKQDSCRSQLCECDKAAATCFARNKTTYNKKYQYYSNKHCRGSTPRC
Put plainly: In vitro inhibitory activity against human synovial fluid phospholipase A2 (HSF-PLA2) by monitoring hydrolysis of [3H]arachidonic acid labeled Escherichia coli.

Test [2] is filed under the species Homo sapiens. Put plainly: In vitro percent inhibition of platelet activating factor (PAF) production in human PMN at 10 uM. The class given is functional.
Test [3] in a line: In vitro inhibition of PGE-2 production in murine resident peritoneal macrophage. In kind it is functional. The following applies: Mus musculus.
Test [4] is filed under the species Homo sapiens. As to the kind of experiment: In vitro inhibition of LTB4 production in human PMN at 50 uM; not active at 50 uM. In kind it is functional.
The target in test [5] is T1, Phospholipase A2, membrane associated. Put plainly: In vitro inhibition tested against Phospholipase A2 (HSF-PLA2) by monitoring hydrolysis of [3H]- arachidonic acid labeled Escherichia coli at 50 uM.
Test [6] addresses T2, Phospholipase A2, membrane associated (Homo sapiens) (UniProt P14555).
T2 sequence (whole entry): T1 sequence (P14555 whole entry)
Put plainly: In vitro percent inhibition against Phospholipase A2 (HSF-PLA2) by monitoring hydrolysis of [3H]- arachidonic acid labeled Escherichia coli at 50 uM.

The species named for test [7] is Homo sapiens. As to the kind of experiment: In vitro inhibition of platelet activating factor (PAF) production in human PMN at 50 uM; not active at 50 uM. The class given is functional.
For test [8], the species on record is Homo sapiens. Put plainly: In vitro inhibition of platelet activating factor (PAF) production in human PMN. The class given is functional.
The species entered for test [9] is Homo sapiens. Put plainly: In vitro inhibition of LTB4 production in human PMN. The class given is functional.

Usually pIC50 stands for the IC50 on a negative log10 scale, so that one unit is a factor of ten. Read a low pIC50 as a large IC50. For orientation: inhibition means how much of the control response was suppressed. High values mean a strong effect, low ones a weak effect.

pIC50: −log10 of the molar value.

`CC(=O)O[C@H]1CC2[C@@]3(C)CCCC(C)(C)C3CC[C@@]2(C)C2CC=C(C(=O)O)[C@H](C(=O)O)[C@]21C` (some centres not stated): the negative-log IC50 (pIC50) is 5.32 in test [1] and 6.70 in test [3]. In addition, 10 µM produced 60% inhibition in the test listed under Homo sapiens [2].

For the compound `CC1(C)CCC[C@@]2(C)C1CC[C@]1(C)C2C[C@H](O)[C@@]2(C)C1CC=C(CO)[C@@H]2CO` (some centres not stated), the IC50 entry in the test filed under Homo sapiens [4] and in the test listed under Homo sapiens [7] was “Not Active” in each case. In addition, the pIC50 in test [5] is < 4.30; in test [3], 6.52. In test [6], the inhibition came out at 21%.

As to `CC(=O)O[C@H]1C[C@@H]2[C@@]3(C)CCCC(C)(C)[C@@H]3CC[C@@]2(C)[C@@H]2CC=C(C=O)[C@H](C=O)[C@@]12C` [SCALARADIAL], the pIC50 was 7.82 in test [1], 6.00 in the test listed under Homo sapiens [8], 7.40 in test [3] and 6.00 in the test filed under Homo sapiens [9].
